Data reported in PubChem BioAssay AID1963438 (Molecular Pharmacology Branch, DTP, NCI, 2024).

Tested on: NCI-H510 multicellular tumor spheroid growth, % test/control
Assay: Anticancer human tumor NCI-H510 cell line growth inhibition [Asc];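 also: spheroids exposed to agents for 7 days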;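 as to viability, T/C: 100% = DMSO vehicle control wells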
Conditions: for viability, T/C: stronger effect = lower value
How it was run: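 Concentration series start at each agent's clinical Cmax, or at 10 microM when none is established, and drop in half-log steps; agents are applied alone or together to complex spheroids built with HUVEC and hMSC.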

[1] = curve of first compound, second compound 0.1 µM
[2] = curve of first compound, second compound 0.316 µM
[3] = curve of first compound, second compound 1 µM
[4] = curve of first compound, second compound 3.16 µM
[5] = curve of first compound, second compound 10 µM
[6] = second compound 0.1 µM, first compound 0.00316 µM
[7] = second compound 0.1 µM, first compound 0.01 µM
[8] = second compound 0.1 µM, first compound 0.0316 µM
[9] = second compound 0.1 µM, first compound 0.1 µM
[10] = second compound 0.1 µM, first compound 0.316 µM
[11] = second compound 0.1 µM, first compound 1 µM
[12] = second compound 0.316 µM, first compound 0.00316 µM
[13] = second compound 0.316 µM, first compound 0.01 µM
[14] = second compound 0.316 µM, first compound 0.0316 µM
[15] = second compound 0.316 µM, first compound 0.1 µM
[16] = second compound 0.316 µM, first compound 0.316 µM
[17] = second compound 0.316 µM, first compound 1 µM
[18] = second compound 1 µM, first compound 0.00316 µM
[19] = second compound 1 µM, first compound 0.01 µM
[20] = second compound 1 µM, first compound 0.0316 µM
[21] = second compound 1 µM, first compound 0.1 µM
[22] = second compound 1 µM, first compound 0.316 µM
[23] = second compound 1 µM, first compound 1 µM
[24] = second compound 3.16 µM, first compound 0.0316 µM
[25] = second compound 3.16 µM, first compound 0.1 µM
[26] = second compound 3.16 µM, first compound 0.316 µM
[27] = second compound 3.16 µM, first compound 1 µM
[28] = second compound 10 µM, first compound 0.0316 µM
[29] = second compound 10 µM, first compound 0.1 µM
[30] = second compound 10 µM, first compound 0.316 µM
[31] = second compound 10 µM, first compound 1 µM

| SMILES | IC50 [1] [nM] | IC50 [2] [nM] | IC50 [3] [nM] | IC50 [4] [nM] | IC50 [5] [nM] | viability, T/C [6] [%] | viability, T/C [7] [%] | viability, T/C [8] [%] | viability, T/C [9] [%] | viability, T/C [10] [%] | viability, T/C [11] [%] | viability, T/C [12] [%] | viability, T/C [14] [%] | viability, T/C [15] [%] | viability, T/C [16] [%] | viability, T/C [17] [%] | viability, T/C [20] [%] | viability, T/C [21] [%] | viability, T/C [22] [%] | viability, T/C [23] [%] | also measured |
| --- | --- | --- | --- | --- | --- | --- | --- | --- | --- | --- | --- | --- | --- | --- | --- | --- | --- | --- | --- | --- | --- |
| COc1c(OCCCN2CCOCC2)ccc2c3n(c(=NC(=O)c4cnc(N)nc4)nc12)CCN3 + Cc1c(S(C)(=O)=O)c(-c2cc(F)cc(N3CCN(c4ccc(NS(=O)(=O)c5ccc(NC(CCN6CCC(C(=O)OCCCP(=O)(O)O)CC6)CSc6ccccc6)c(S(=O)(=O)C(F)(F)F)c5)cc4)CC3)c2)c(-c2ccc(Cl)cc2)n1C(C)C | > 1000 | > 1000 | > 1000 | > 1000 | 231 | 112 | 106 | 88.9 | 89.3 | 96.4 | 84.3 | 102 | 70.3 | 75 | 89.1 | 53.6 | 106 | 91.2 | 67.5 | 86.1 | viability, T/C [13]: 99.6%; viability, T/C [18]: 99.8%; viability, T/C [19]: 98.1%; viability, T/C (second compound 3.16 µM, first compound 0.00316 µM): 89.4%; viability, T/C (second compound 3.16 µM, first compound 0.01 µM): 91.6%; viability, T/C [24]: 82.6%; viability, T/C [25]: 80%; viability, T/C [26]: 82.6%; viability, T/C [27]: 63.8%; viability, T/C (second compound 10 µM, first compound 0.00316 µM): 66%; viability, T/C (second compound 10 µM, first compound 0.01 µM): 98.4%; viability, T/C [28]: 70.9%; viability, T/C [29]: 96.3%; viability, T/C [30]: 37.6%; viability, T/C [31]: 32.2% |
| Cc1c(S(C)(=O)=O)c(-c2cc(F)cc(N3CCN(c4ccc(NS(=O)(=O)c5ccc(NC(CCN6CCC(C(=O)OCCCP(=O)(O)O)CC6)CSc6ccccc6)c(S(=O)(=O)C(F)(F)F)c5)cc4)CC3)c2)c(-c2ccc(Cl)cc2)n1C(C)C (configuration not stated) |  |  |  |  |  |  |  |  |  |  |  |  |  |  |  |  |  |  |  |  | viability, T/C (compound 1 µM): 95.2% [middle of 14 runs]; IC50 (compound alone, run of 10/11/2022): > 10000 nM |
| O=C(c1cc(Cc2n[nH]c(=O)c3ccccc23)ccc1F)N1CCN(C(=O)C2CC2)CC1 + Cc1c(S(C)(=O)=O)c(-c2cc(F)cc(N3CCN(c4ccc(NS(=O)(=O)c5ccc(NC(CCN6CCC(C(=O)OCCCP(=O)(O)O)CC6)CSc6ccccc6)c(S(=O)(=O)C(F)(F)F)c5)cc4)CC3)c2)c(-c2ccc(Cl)cc2)n1C(C)C | 1610 | 1520 | 1490 | 1160 | 1320 |  |  | 94.8 | 101 | 107 | 74.1 |  | 124 | 89.1 | 106 | 73.5 | 94.8 | 112 | 93.2 | 69.5 | viability, T/C (second compound 0.1 µM, first compound 3.16 µM): 13.4%; viability, T/C (second compound 0.1 µM, first compound 10 µM): 18.7%; viability, T/C (second compound 0.316 µM, first compound 3.16 µM): 8.58%; viability, T/C (second compound 0.316 µM, first compound 10 µM): 3.25%; viability, T/C (second compound 1 µM, first compound 3.16 µM): 14.3%; viability, T/C (second compound 1 µM, first compound 10 µM): 3.96%; viability, T/C [24]: 111%; viability, T/C [25]: 121%; viability, T/C [26]: 87.1%; viability, T/C [27]: 63.3%; viability, T/C (second compound 3.16 µM, first compound 3.16 µM): 4.95%; viability, T/C (second compound 3.16 µM, first compound 10 µM): 3.34%; viability, T/C [28]: 81.6%; viability, T/C [29]: 94.5%; viability, T/C [30]: 81.5%; viability, T/C [31]: 65.2%; viability, T/C (second compound 10 µM, first compound 3.16 µM): 1.71%; viability, T/C (second compound 10 µM, first compound 10 µM): 1.74% |
| O=C(c1ccc(F)c(F)c1Nc1ccc(I)cc1F)N1CC(O)([C@@H]2CCCCN2)C1 + CNC(C)C(=O)NC1CN(S(=O)(=O)c2cccc(S(=O)(=O)N3CCC4CCC(C(=O)NC(c5ccccc5)c5ccccc5)N4C(=O)C(NC(=O)C(C)NC)C3)c2)CCC2CCC(C(=O)NC(c3ccccc3)c3ccccc3)N2C1=O | > 1000 | > 1000 | > 1000 |  |  | 112 | 95.2 | 104 | 97.2 | 92.1 | 101 | 102 | 104 | 105 | 100 | 108 | 101 | 90.2 | 99.7 | 84.7 | IC50 (curve of first compound, second compound 0.01 µM): > 1000 nM; IC50 (curve of first compound, second compound 0.0316 µM): > 1000 nM; viability, T/C (second compound 0.01 µM, first compound 0.00316 µM): 98.5%; viability, T/C (second compound 0.01 µM, first compound 0.01 µM): 113%; viability, T/C (second compound 0.01 µM, first compound 0.0316 µM): 102%; viability, T/C (second compound 0.01 µM, first compound 0.1 µM): 101%; viability, T/C (second compound 0.01 µM, first compound 0.316 µM): 102%; viability, T/C (second compound 0.01 µM, first compound 1 µM): 79.6%; viability, T/C (second compound 0.0316 µM, first compound 0.00316 µM): 94.7%; viability, T/C (second compound 0.0316 µM, first compound 0.01 µM): 103%; viability, T/C (second compound 0.0316 µM, first compound 0.0316 µM): 88%; viability, T/C (second compound 0.0316 µM, first compound 0.1 µM): 102%; viability, T/C (second compound 0.0316 µM, first compound 0.316 µM): 100%; viability, T/C (second compound 0.0316 µM, first compound 1 µM): 90.3%; viability, T/C [13]: 101%; viability, T/C [18]: 109%; viability, T/C [19]: 111% |
